Test results reported in the NIST ThermoML archive (doi:10.1021/je500079y).

Assay: wn = mass fraction of the nth substance listed
Conditions: 101 kPa, Liquid, Vibrating tube method

CCOS(=O)(=O)[O-].CCn1cc[n+](C)c1 [1-ethyl-3-methylimidazolium ethyl sulfate] + O=C[C@H](O)[C@@H](O)[C@H](O)[C@H](O)CO
mass density [kg/m3]
Conditions | w2 = 0.046 | w2 = 0.059 | w2 = 0.097 | w2 = 0.134 | w2 = 0.154 | w2 = 0.18
278.15 K | 1260.18 | 1263.04 | 1271.43 | 1279.83 | 1284.18 | 1290.02
283.15 K | 1256.74 | 1259.61 | 1268.01 | 1276.43 | 1280.78 | 1286.63
288.15 K | 1253.31 | 1256.19 | 1264.58 | 1273.02 | 1277.37 | 1283.21
293.15 K | 1249.88 | 1252.77 | 1261.19 | 1269.61 | 1273.96 | 1279.8
298.15 K | 1246.45 | 1249.35 | 1257.81 | 1266.25 | 1270.6 | 1276.37
303.15 K | 1243.04 | 1245.93 | 1254.43 | 1262.9 | 1267.26 | 1273
308.15 K | 1239.63 | 1242.53 | 1251.04 | 1259.54 | 1263.91 | 1269.64
313.15 K | 1236.25 | 1239.14 | 1247.66 | 1256.17 | 1260.56 | 1266.26
318.15 K | 1232.88 | 1235.77 | 1244.29 | 1252.82 | 1257.21 | 1262.88
323.15 K | 1229.52 | 1232.42 | 1240.94 | 1249.47 | 1253.87 | 1259.51
328.15 K | 1226.18 | 1229.08 | 1237.6 | 1246.13 | 1250.54 | 1256.14
333.15 K | 1222.86 | 1225.74 | 1234.28 | 1242.81 | 1247.23 | 1252.8
338.15 K | 1219.54 | 1222.46 | 1230.97 | 1239.5 | 1243.93 | 1249.49
343.15 K | 1216.24 | 1219.17 | 1227.66 | 1236.2 | 1240.64 | 1246.21

O=C(CO)[C@@H](O)[C@H](O)[C@H](O)CO [D-fructose] + CCOS(=O)(=O)[O-].CCn1cc[n+](C)c1
mass density [kg/m3]
Conditions | w1 = 0.069 | w1 = 0.104 | w1 = 0.171 | w1 = 0.248 | w1 = 0.266 | w1 = 0.307
278.15 K | 1265.07 | 1272.55 | 1287.93 | 1306.03 | 1310.46 | 1320.13
283.15 K | 1261.63 | 1269.11 | 1284.51 | 1302.63 | 1307.07 | 1316.76
288.15 K | 1258.21 | 1265.68 | 1281.07 | 1299.21 | – | 1313.36
293.15 K | 1254.78 | 1262.28 | 1277.63 | 1295.77 | 1300.21 | 1309.93
298.15 K | 1251.35 | 1258.88 | 1274.21 | 1292.29 | 1296.72 | 1306.43
303.15 K | 1247.93 | 1255.47 | 1270.78 | 1288.73 | 1293.13 | 1302.82
308.15 K | 1244.5 | 1252.05 | 1267.3 | 1285.14 | 1289.48 | 1299.08
313.15 K | 1241.08 | 1248.62 | 1263.76 | 1281.5 | 1285.81 | 1295.34
318.15 K | 1237.67 | 1245.19 | 1260.19 | 1277.84 | 1282.13 | 1291.62
323.15 K | 1234.25 | 1241.74 | 1256.61 | 1274.19 | 1278.47 | 1287.95
328.15 K | 1230.83 | 1238.29 | 1253.07 | 1270.58 | 1274.85 | 1284.29
333.15 K | 1227.42 | 1234.86 | 1249.57 | 1267.01 | 1271.26 | 1280.66
338.15 K | 1224.03 | 1231.44 | 1246.09 | 1263.46 | 1267.69 | 1277.05
343.15 K | 1220.66 | 1228.04 | 1242.65 | 1259.93 | 1264.14 | 1273.45

OC[C@@H](O)[C@@H](O)[C@H](O)[C@@H](O)CO [D-sorbitol] + CCOS(=O)(=O)[O-].CCn1cc[n+](C)c1
mass density [kg/m3]
Conditions | w1 = 0.037 | w1 = 0.056 | w1 = 0.113 | w1 = 0.16 | w1 = 0.182 | w1 = 0.202
278.15 K | 1255.77 | 1258.66 | 1267.3 | 1274.68 | 1278.11 | 1281.13
283.15 K | 1252.33 | 1255.52 | 1263.85 | 1271.21 | 1274.65 | 1277.67
288.15 K | 1248.88 | 1251.77 | 1260.41 | 1267.76 | 1271.19 | 1274.21
293.15 K | 1245.42 | 1248.33 | 1256.99 | 1264.34 | 1267.76 | 1270.77
298.15 K | 1241.97 | 1244.88 | 1253.56 | 1260.93 | 1264.36 | 1267.36
303.15 K | 1238.54 | 1241.45 | 1250.14 | 1257.52 | 1260.96 | 1263.97
308.15 K | 1235.13 | 1238.04 | 1246.73 | 1254.11 | 1257.55 | 1260.56
313.15 K | 1231.74 | 1234.65 | 1243.33 | 1250.71 | 1254.15 | 1257.16
318.15 K | 1228.36 | 1231.27 | 1239.95 | 1247.32 | 1250.77 | 1253.77
323.15 K | 1225 | 1227.91 | 1236.59 | 1243.95 | 1247.4 | 1250.4
328.15 K | 1221.65 | 1224.56 | 1233.25 | 1240.6 | 1244.04 | 1247.03
333.15 K | 1218.32 | 1221.23 | 1229.92 | 1237.26 | 1240.7 | 1243.69
338.15 K | 1215 | 1217.9 | 1226.61 | 1233.93 | 1237.37 | 1240.35
343.15 K | 1211.69 | 1214.59 | 1223.3 | 1230.62 | 1234.06 | 1237.03

OC[C@@H](O)[C@H](O)[C@@H](O)CO [xylitol] + CCOS(=O)(=O)[O-].CCn1cc[n+](C)c1
mass density [kg/m3]
Conditions | w1 = 0.05 | w1 = 0.07 | w1 = 0.098 | w1 = 0.131 | w1 = 0.15 | w1 = 0.169
278.15 K | 1256.32 | 1258.74 | 1261.95 | 1267.09 | 1269.01 | 1271.21
283.15 K | 1252.87 | 1255.31 | 1258.5 | 1263.64 | 1265.56 | 1267.75
288.15 K | 1249.41 | 1251.86 | 1255.06 | 1260.2 | 1262.12 | 1264.31
293.15 K | 1245.95 | 1248.4 | 1251.62 | 1256.76 | 1258.69 | 1260.89
298.15 K | 1242.51 | 1244.96 | 1248.2 | 1253.33 | 1255.25 | 1257.46
303.15 K | 1239.07 | 1241.53 | 1244.78 | 1249.9 | 1251.82 | 1254.03
308.15 K | 1235.66 | 1238.11 | 1241.38 | 1246.49 | 1248.41 | 1250.61
313.15 K | 1232.27 | 1234.72 | 1238.01 | 1243.08 | 1245 | 1247.2
318.15 K | 1228.89 | 1231.34 | 1234.65 | 1239.7 | 1241.62 | 1243.81
323.15 K | 1225.53 | 1227.97 | 1231.3 | 1236.33 | 1238.25 | 1240.44
328.15 K | 1222.18 | 1224.62 | 1227.97 | 1232.97 | 1234.89 | 1237.08
333.15 K | 1218.84 | 1221.29 | 1224.64 | 1229.63 | 1231.55 | 1233.73
338.15 K | 1215.52 | 1217.96 | 1221.33 | 1226.3 | – | 1230.39
343.15 K | 1212.21 | 1214.65 | 1218.02 | 1222.98 | – | 1227.06
